{"source": "PubChem BioAssay AID330", "about": "(DTP/NCI, 2004)", "test_system": "P388 leukemia ip, CD2F1 mice, survival T/C", "assay": "NCI In Vivo Anticancer Drug Screen. Data for tumor model P388 Leukemia (intraperitoneal) in CD2F1 (CDF1) mice", "conditions": "endpoint: median survival time, higher = longer survival", "in_short": "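Mice carrying the transplanted tumor received test compound or vehicle. Survival was recorded in each group, and the value is the treated-group measurement divided by that of the vehicle-treated control group.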", "key": {"[1]": {"conditions": "dose: 60.0 mg/kg/injection, schedule: Q01DX005 (ip), vehicle: saline"}, "[2]": {"conditions": "dose: 120.0 mg/kg/injection, schedule: Q01DX005 (ip), vehicle: saline"}, "[3]": {"conditions": "dose: 240.0 mg/kg/injection, schedule: Q01DX005 (ip), vehicle: saline"}}, "note": "Values joined by “and” are separate entries in the source; they are usually repeats but may differ in a detail not shown here. Equal values may be shown once. Toxic doses and inconclusive results are not listed."}
{"smiles": "COc1ccc2c3c1OC1C(O)C=CC4C(C2)N(C)CCC341", "note": "(stereo not drawn)", "values": [{"measurement": "T/C", "setting": "dose: 3.12 mg/kg/injection, schedule: Q01DX009 (ip), vehicle: saline with Tween-80", "value": "102 % of control"}, {"measurement": "T/C", "setting": "dose: 6.25 mg/kg/injection, schedule: Q01DX009 (ip), vehicle: saline with Tween-80", "value": "105 % of control"}, {"measurement": "T/C", "setting": "dose: 12.5 mg/kg/injection, schedule: Q01DX009 (ip), vehicle: saline with Tween-80", "value": "112 % of control"}, {"measurement": "T/C", "setting": "dose: 25.0 mg/kg/injection, schedule: Q01DX009 (ip), vehicle: saline with Tween-80", "value": "114 % of control"}]}
{"smiles": "COC(=O)C1=C2Nc3ccccc3C23CCN2C(O)C4(CC5CC67CCOC6CCN6CCC8(c9cccc(OC)c9N(C4)C58O)C67)C4OCCC4(C1)C23", "note": "(stereo not drawn)", "values": [{"measurement": "T/C", "setting": "dose: 3.12 mg/kg/injection, schedule: Q01DX005 (ip), vehicle: Klucel (hydroxypropylcellulose) (HPC)", "value": "96 % of control"}, {"measurement": "T/C", "setting": "dose: 6.25 mg/kg/injection, schedule: Q01DX005 (ip), vehicle: Klucel (hydroxypropylcellulose) (HPC)", "value": "99 % of control"}, {"measurement": "T/C", "setting": "dose: 12.5 mg/kg/injection, schedule: Q01DX005 (ip), vehicle: Klucel (hydroxypropylcellulose) (HPC)", "value": "99 % of control"}, {"measurement": "T/C", "setting": "dose: 25.0 mg/kg/injection, schedule: Q01DX005 (ip), vehicle: Klucel (hydroxypropylcellulose) (HPC)", "value": "87 % of control and 89 % of control"}]}
{"smiles": "Cc1ccc(S(=O)(=O)N/N=C/c2c(C)nc3n2CCS3)cc1", "values": [{"measurement": "T/C", "setting": "dose: 100.0 mg/kg/injection, schedule: Q01DX001 (ip), vehicle: Klucel (hydroxypropylcellulose) (HPC)", "value": "101 % of control"}, {"measurement": "T/C", "setting": "dose: 200.0 mg/kg/injection, schedule: Q01DX001 (ip), vehicle: Klucel (hydroxypropylcellulose) (HPC)", "value": "102 % of control"}, {"measurement": "T/C", "setting": "dose: 400.0 mg/kg/injection, schedule: Q01DX001 (ip), vehicle: Klucel (hydroxypropylcellulose) (HPC)", "value": "102 % of control"}]}
{"smiles": "CC1(C)C2CC[C@@]1(CS(=O)(=O)N(CCCl)CCCl)C(=O)C2", "values": [{"measurement": "T/C", "setting": "dose: 30.0 mg/kg/injection, schedule: Q01DX005 (ip), vehicle: saline", "value": "99 % of control"}, {"measurement": "T/C", "setting": "[1]", "value": "98 % of control"}, {"measurement": "T/C", "setting": "[2]", "value": "96 % of control"}, {"measurement": "T/C", "setting": "[3]", "value": "96 % of control"}]}
{"smiles": "COC(=O)C(CP(C)(C)=O)C(N=C(C)C(F)(F)F)(c1ccccc1)c1ccccc1", "note": "(stereo not drawn)", "values": [{"measurement": "T/C", "setting": "dose: 50.0 mg/kg/injection, schedule: Q01DX005 (ip), vehicle: Klucel (hydroxypropylcellulose) (HPC)", "value": "100 % of control"}, {"measurement": "T/C", "setting": "dose: 100.0 mg/kg/injection, schedule: Q01DX005 (ip), vehicle: Klucel (hydroxypropylcellulose) (HPC)", "value": "100 % of control"}, {"measurement": "T/C", "setting": "dose: 200.0 mg/kg/injection, schedule: Q01DX005 (ip), vehicle: Klucel (hydroxypropylcellulose) (HPC)", "value": "107 % of control"}]}
{"smiles": "CCCCCCCCCCCCCCCCS[As](C)C", "values": [{"measurement": "T/C", "setting": "dose: 50.0 mg/kg/injection, schedule: Q01DX005 (ip), vehicle: saline with Tween-80", "value": "92 % of control"}, {"measurement": "T/C", "setting": "dose: 100.0 mg/kg/injection, schedule: Q01DX005 (ip), vehicle: saline with Tween-80", "value": "100 % of control"}, {"measurement": "T/C", "setting": "dose: 200.0 mg/kg/injection, schedule: Q01DX005 (ip), vehicle: saline with Tween-80", "value": "96 % of control"}]}
{"smiles": "COC(=O)C12OCC34C(CC5C(C)=CC(=O)C(O)C5(C)C3C(O)C1O)OC(=O)C(OC(=O)CC(C)C)C24", "note": "(stereo not drawn)", "values": [{"measurement": "T/C", "setting": "dose: 0.25 mg/kg/injection, schedule: Q01DX009 (ip), vehicle: saline + alcohol", "value": "124 % of control"}, {"measurement": "T/C", "setting": "dose: 0.5 mg/kg/injection, schedule: Q01DX009 (ip), vehicle: saline + alcohol", "value": "122 % of control"}, {"measurement": "T/C", "setting": "dose: 2.0 mg/kg/injection, schedule: Q01DX009 (ip), vehicle: saline + alcohol", "value": "163 % of control"}]}
{"smiles": "CCOC(=O)CC(=O)c1cccnc1", "values": [{"measurement": "T/C", "setting": "dose: 50.0 mg/kg/injection, schedule: Q04DX003 (ip), vehicle: suspension in saline", "value": "113 % of control"}, {"measurement": "T/C", "setting": "dose: 100.0 mg/kg/injection, schedule: Q04DX003 (ip), vehicle: suspension in saline", "value": "104 % of control"}, {"measurement": "T/C", "setting": "dose: 200.0 mg/kg/injection, schedule: Q04DX003 (ip), vehicle: suspension in saline", "value": "114 % of control"}, {"measurement": "T/C", "setting": "dose: 400.0 mg/kg/injection, schedule: Q04DX003 (ip), vehicle: suspension in saline", "value": "113 % of control"}]}
{"smiles": "O=C(O)C1CSC2(CCCC2)N1", "note": "(stereo not drawn)", "values": [{"measurement": "T/C", "setting": "dose: 100.0 mg/kg/injection, schedule: Q04DX003 (ip), vehicle: saline", "value": "101 % of control"}, {"measurement": "T/C", "setting": "dose: 200.0 mg/kg/injection, schedule: Q04DX003 (ip), vehicle: saline", "value": "98 % of control"}, {"measurement": "T/C", "setting": "dose: 400.0 mg/kg/injection, schedule: Q04DX003 (ip), vehicle: saline", "value": "98 % of control"}]}
{"smiles": "CCN(CC)CC(C)(C)C(=O)/C=C/c1ccccc1", "values": [{"measurement": "T/C", "setting": "[1]", "value": "103 % of control"}, {"measurement": "T/C", "setting": "[2]", "value": "102 % of control"}, {"measurement": "T/C", "setting": "[3]", "value": "115 % of control"}]}
{"smiles": "Cc1cc(O)c2c(c1)C(=O)c1cccc(O)c1C2=O", "values": [{"measurement": "T/C", "setting": "dose: 6.25 mg/kg/injection, schedule: Q01DX009 (ip), vehicle: saline", "value": "100 % of control"}, {"measurement": "T/C", "setting": "dose: 12.5 mg/kg/injection, schedule: Q01DX009 (ip), vehicle: saline", "value": "111 % of control"}, {"measurement": "T/C", "setting": "dose: 25.0 mg/kg/injection, schedule: Q01DX009 (ip), vehicle: saline", "value": "117 % of control"}, {"measurement": "T/C", "setting": "dose: 50.0 mg/kg/injection, schedule: Q01DX009 (ip), vehicle: saline", "value": "108 % of control"}]}
{"smiles": "CCC[n+]1noc(N)n1", "values": [{"measurement": "T/C", "setting": "dose: 3.13 mg/kg/injection, schedule: Q01DX009 (ip), vehicle: water", "value": "97 % of control"}, {"measurement": "T/C", "setting": "dose: 6.25 mg/kg/injection, schedule: Q01DX009 (ip), vehicle: water", "value": "99 % of control"}, {"measurement": "T/C", "setting": "dose: 12.5 mg/kg/injection, schedule: Q01DX009 (ip), vehicle: water", "value": "90 % of control"}, {"measurement": "T/C", "setting": "dose: 25.0 mg/kg/injection, schedule: Q01DX009 (ip), vehicle: water", "value": "97 % of control"}, {"measurement": "T/C", "setting": "dose: 50.0 mg/kg/injection, schedule: Q01DX009 (ip), vehicle: water", "value": "106 % of control"}, {"measurement": "T/C", "setting": "dose: 100.0 mg/kg/injection, schedule: Q01DX009 (ip), vehicle: water", "value": "106 % of control"}]}
{"smiles": "CC(C)(C)SC(=O)C[Si](C)(C)C", "values": [{"measurement": "T/C", "setting": "dose: 50.0 mg/kg/injection, schedule: Q04DX003 (ip), vehicle: saline with Tween-80", "value": "103 % of control and 105 % of control"}, {"measurement": "T/C", "setting": "dose: 100.0 mg/kg/injection, schedule: Q04DX003 (ip), vehicle: saline with Tween-80", "value": "107 % of control and 94 % of control"}, {"measurement": "T/C", "setting": "dose: 200.0 mg/kg/injection, schedule: Q04DX003 (ip), vehicle: saline with Tween-80", "value": "111 % of control and 118 % of control"}, {"measurement": "T/C", "setting": "dose: 400.0 mg/kg/injection, schedule: Q04DX003 (ip), vehicle: saline with Tween-80", "value": "110 % of control"}]}
